Laboratory results taken from PubChem BioAssay AID298 (DTP/NCI, 2004).
“And” between values parts separate entries of the source, which are not always exact repeats. Equal values may be shown once. Results filed as inconclusive are left out.

Tested on: MX-1 breast xenograft, intrarenal, nude mice, tumor weight
Experiment: NCI In Vivo Anticancer Drug Screen. Data for tumor model Human Mammary Carcinoma MX-1 Xenograft (intrarenal inoculation) in NU/NU BALB/C (nude) mice
Conditions: endpoint: mean tumor weight change, higher = larger tumour
Outline: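 Compounds were given to mice carrying transplanted tumors, and tumor size or survival was measured. Each value is the treated-group measurement (T) divided by the vehicle-treated control-group measurement (C).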

[1] = dose: 100.0 mg/kg/injection, schedule: Q04DX003 (sc), vehicle: saline with Tween-80
[2] = dose: 200.0 mg/kg/injection, schedule: Q04DX003 (sc), vehicle: saline with Tween-80
[3] = dose: 150.0 mg/kg/injection, schedule: Q04DX003 (sc), vehicle: saline
[4] = dose: 300.0 mg/kg/injection, schedule: Q04DX003 (sc), vehicle: saline
[5] = dose: 100.0 mg/kg/injection, schedule: Q04DX003 (ip), vehicle: saline with Tween-80
[6] = dose: 200.0 mg/kg/injection, schedule: Q04DX003 (ip), vehicle: saline with Tween-80
[7] = dose: 100.0 mg/kg/injection, schedule: Q04DX003 (ip), vehicle: Klucel (hydroxypropylcellulose) (HPC)
[8] = dose: 200.0 mg/kg/injection, schedule: Q04DX003 (ip), vehicle: Klucel (hydroxypropylcellulose) (HPC)
[9] = dose: 400.0 mg/kg/injection, schedule: Q04DX003 (ip), vehicle: Klucel (hydroxypropylcellulose) (HPC)

In the case of `O=C[C@@H](CO)O[C@H](C=O)n1cnc2c(=O)[nH]cnc21`, the T/C [1] is reported as 73 % of control, the T/C [2] is reported as 35 % of control and the T/C (dose: 400.0 mg/kg/injection, schedule: Q04DX003 (sc), vehicle: saline with Tween-80) is reported as -63 % of control.

`O=C1c2cccc(NCCCNCCO)c2C(=O)c2cccc(NCCCNCCO)c21` was tested, and the T/C (dose: 18.75 mg/kg/injection, schedule: Q04DX003 (ip), vehicle: acid diluted with saline) was 89 % of control and the T/C (dose: 37.5 mg/kg/injection, schedule: Q04DX003 (ip), vehicle: acid diluted with saline) was 171 % of control.

With `CN(CCN(C)C(=O)CCOS(C)(=O)=O)C(=O)CCOS(C)(=O)=O` the T/C (dose: 37.5 mg/kg/injection, schedule: Q04DX003 (sc), vehicle: saline) was 7 % of control, the T/C (dose: 75.0 mg/kg/injection, schedule: Q04DX003 (sc), vehicle: saline) was -100 % of control and the T/C [3] was -100 % of control. The T/C [4] was -44 % of control.

In the case of `Cc1ccccc1N=C(c1ccccc1)C1C(=O)c2ccccc2C1=O`, the T/C (dose: 150.0 mg/kg/injection, schedule: Q04DX003 (ip), vehicle: DMSO) is reported as 117 % of control, the T/C (dose: 300.0 mg/kg/injection, schedule: Q04DX003 (ip), vehicle: DMSO) is reported as 102 % of control and the T/C (dose: 600.0 mg/kg/injection, schedule: Q04DX003 (ip), vehicle: DMSO) is reported as 103 % of control. The T/C (dose: 1200.0 mg/kg/injection, schedule: Q04DX003 (ip), vehicle: DMSO) was 65 % of control.

For `O=C(O)c1cc(C(=O)O)c(C(=O)O)cc1C(=O)O.[NH2-].[NH2-].[NH2-].[NH2-].[Pt+2].[Pt+2]`, the T/C (dose: 10.0 mg/kg/injection, schedule: Q04DX003 (ip), vehicle: water) was 81 % of control, the T/C (dose: 20.0 mg/kg/injection, schedule: Q04DX003 (ip), vehicle: water) was 42 % of control and the T/C (dose: 40.0 mg/kg/injection, schedule: Q04DX003 (ip), vehicle: water) was 12 % of control.

In the case of `Cc1nc2c(N)cc(Cl)cc2[nH]1`, the T/C [5] is reported as 95 % of control and the T/C [6] is reported as 45 % of control.

With `CCCCCCCCCCCCN1C(C)=CS/C1=C\C=C\c1scc(C)[n+]1CCCCCCCCCCCC` the T/C (dose: 0.75 mg/kg/injection, schedule: Q04DX003 (ip), vehicle: saline with Tween-80) was 91 % of control, the T/C (dose: 1.5 mg/kg/injection, schedule: Q04DX003 (ip), vehicle: saline with Tween-80) was 89 % of control and the T/C (dose: 3.0 mg/kg/injection, schedule: Q04DX003 (ip), vehicle: saline with Tween-80) was 28 % of control.

For `O=C(Nc1cccnc1)c1ccc([N+](=O)[O-])s1`, the T/C (dose: 50.0 mg/kg/injection, schedule: Q04DX003 (ip), vehicle: saline) was 92 % of control, the T/C (dose: 100.0 mg/kg/injection, schedule: Q04DX003 (ip), vehicle: saline) was 81 % of control and 90 % of control and the T/C (dose: 200.0 mg/kg/injection, schedule: Q04DX003 (ip), vehicle: saline) was 92 % of control and 103 % of control. The T/C (dose: 400.0 mg/kg/injection, schedule: Q04DX003 (ip), vehicle: saline) was 80 % of control and the T/C (dose: 800.0 mg/kg/injection, schedule: Q04DX003 (ip), vehicle: saline) was 105 % of control.

With `CCn1cnc2c(=S)nc[nH]c21` the T/C [3] was 91 % of control and the T/C [4] was 49 % of control.

With `OC1OC2COC(c3ccccc3)OC2C(O)C1O` (stereo unspecified) the T/C (dose: 300.0 mg/kg/injection, schedule: Q04DX003 (sc), vehicle: water) was 57 % of control, the T/C (dose: 600.0 mg/kg/injection, schedule: Q04DX003 (sc), vehicle: water) was 91 % of control and the T/C (dose: 1200.0 mg/kg/injection, schedule: Q04DX003 (sc), vehicle: water) was 91 % of control. For the same compound, the T/C (dose: 2400.0 mg/kg/injection, schedule: Q04DX003 (sc), vehicle: water) was 105 % of control.

With `CC1(C)CC(=O)C(CSC(=O)c2ccccc2)C(=O)C1` the T/C (dose: 75.0 mg/kg/injection, schedule: Q04DX003 (sc), vehicle: Klucel (hydroxypropylcellulose) (HPC)) was 101 % of control, the T/C (dose: 150.0 mg/kg/injection, schedule: Q04DX003 (sc), vehicle: Klucel (hydroxypropylcellulose) (HPC)) was 101 % of control and the T/C (dose: 300.0 mg/kg/injection, schedule: Q04DX003 (sc), vehicle: Klucel (hydroxypropylcellulose) (HPC)) was 101 % of control.

`C=C1C(O)C2(O)OCC34C(CC5C(C)=CC(=O)C(O)C5(C)C23)OC(=O)C(OC(=O)C/C=C/CCCCCCCC)C14` (stereo unspecified) was tested, and the T/C (dose: 12.5 mg/kg/injection, schedule: Q04DX003 (ip), vehicle: saline + alcohol) was 38 % of control.

`O=C1CSC(c2cccs2)N1c1nncs1` (stereo unspecified) was tested, and the T/C [7] was 92 % of control, the T/C [8] was 102 % of control and the T/C [9] was 57 % of control. For the same compound, the T/C (dose: 800.0 mg/kg/injection, schedule: Q04DX003 (ip), vehicle: Klucel (hydroxypropylcellulose) (HPC)) was 49 % of control.

For `COc1cc2c[n+](C)c3c4cc5c(cc4ccc3c2cc1OC)OCO5`, the T/C (dose: 25.0 mg/kg/injection, schedule: Q04DX003 (sc), vehicle: saline with Tween-80) was 94 % of control, the T/C (dose: 50.0 mg/kg/injection, schedule: Q04DX003 (sc), vehicle: saline with Tween-80) was 116 % of control and the T/C [1] was 111 % of control. The T/C [2] was 108 % of control.

For `NS(=O)(=O)OCCCCCCCOS(N)(=O)=O`, the T/C (dose: 150.0 mg/kg/injection, schedule: Q04DX003 (ip), vehicle: saline with Tween-80) was -40 % of control.

In the case of `NC(=S)c1ncn(C2OC(COC=O)C(OC=O)C2OC=O)c1NC=O` (stereo unspecified), the T/C (dose: 50.0 mg/kg/injection, schedule: Q04DX003 (ip), vehicle: saline with Tween-80) is reported as 105 % of control, the T/C [7] is reported as 47 % of control and the T/C [5] is reported as 103 % of control. The T/C [8] was 31 % of control, the T/C [6] was 65 % of control and the T/C [9] was 48 % of control. The T/C (dose: 400.0 mg/kg/injection, schedule: Q04DX003 (ip), vehicle: saline with Tween-80) was 9 % of control.

For `O=c1n(CC2CO2)c(=O)n(CC2CO2)c(=O)n1CC1CO1` (stereo unspecified), the T/C (dose: 25.0 mg/kg/injection, schedule: Q01DX010 (sc), vehicle: saline) was 37 % of control, the T/C (dose: 25.0 mg/kg/injection, schedule: Q04DX003 (sc), vehicle: suspension in saline) was 18 % of control and the T/C (dose: 50.0 mg/kg/injection, schedule: Q04DX003 (sc), vehicle: suspension in saline) was -100 % of control.

With `C=C1COC(O)(C2OCOC(C3CC(=O)NC(=O)C3)C2O)C1C` (stereo unspecified) the T/C (dose: 37.5 micrograms/kg/injection, schedule: Q04DX003 (ip), vehicle: water) was 117 % of control.

In the case of `O=C1C=CN(C2OC(CO)C(O)C2O)C(=O)C1` (stereo unspecified), the T/C (dose: 90.0 mg/kg/injection, schedule: Q01DX009 (ip), vehicle: saline) is reported as 65 % of control, the T/C (dose: 133.4 mg/kg/injection, schedule: Q01DX009 (ip), vehicle: saline) is reported as 98 % of control and the T/C (dose: 200.0 mg/kg/injection, schedule: Q01DX009 (ip), vehicle: saline) is reported as 89 % of control. The T/C (dose: 300.0 mg/kg/injection, schedule: Q01DX009 (ip), vehicle: saline) was 36 % of control.

In the case of `CCCCCCCCCCC(OC(C)=O)C1CCC(C2CCC(C(O)CCCCCCCCCCCCC3C=C(C)OC3=O)O2)O1` (stereo unspecified), the T/C (dose: 20.0 mg/kg/injection, schedule: Q04DX003 (sc), vehicle: water) is reported as 80 % of control, the T/C (dose: 40.0 mg/kg/injection, schedule: Q04DX003 (sc), vehicle: water) is reported as 72 % of control and the T/C (dose: 80.0 mg/kg/injection, schedule: Q04DX003 (sc), vehicle: water) is reported as 71 % of control. The T/C (dose: 160.0 mg/kg/injection, schedule: Q04DX003 (sc), vehicle: water) was 70 % of control.

For `c1ccc2c(NCCCCCCCCNc3c4ccccc4nc4ccccc34)c3ccccc3nc2c1`, the T/C (dose: 20.0 mg/kg/injection, schedule: Q01DX010 (sc), vehicle: Klucel (hydroxypropylcellulose) (HPC)) was 106 % of control, the T/C (dose: 40.0 mg/kg/injection, schedule: Q01DX010 (sc), vehicle: Klucel (hydroxypropylcellulose) (HPC)) was 107 % of control and the T/C (dose: 80.0 mg/kg/injection, schedule: Q01DX010 (sc), vehicle: Klucel (hydroxypropylcellulose) (HPC)) was 100 % of control. For the same compound, the T/C (dose: 160.0 mg/kg/injection, schedule: Q01DX010 (sc), vehicle: Klucel (hydroxypropylcellulose) (HPC)) was 99 % of control.

For `CN(C)c1nc(N(C)C)[n+]([O-])c(N(C)C)n1`, the T/C (dose: 200.0 mg/kg/injection, schedule: Q01DX010 (ip), vehicle: water) was 83 % of control and the T/C (dose: 400.0 mg/kg/injection, schedule: Q01DX010 (ip), vehicle: water) was 107 % of control.

With `CN(C)CCC(=O)C(=Cc1ccc(O)cc1)C(=O)CCN(C)C` the T/C (dose: 75.0 mg/kg/injection, schedule: Q04DX003 (ip), vehicle: saline) was 90 % of control and the T/C (dose: 150.0 mg/kg/injection, schedule: Q04DX003 (ip), vehicle: saline) was 124 % of control.

With `CC1=C(/C=C/C(C)=C/C=C/C(C)=C/C=O)C(C)(C)CCC1` the T/C (dose: 150.0 mg/kg/injection, schedule: Q04DX003 (sc), vehicle: saline with Tween-80) was 84 % of control, the T/C (dose: 300.0 mg/kg/injection, schedule: Q04DX003 (sc), vehicle: saline with Tween-80) was 39 % of control and the T/C (dose: 600.0 mg/kg/injection, schedule: Q04DX003 (sc), vehicle: saline with Tween-80) was 51 % of control. For the same compound, the T/C (dose: 1200.0 mg/kg/injection, schedule: Q04DX003 (sc), vehicle: saline with Tween-80) was 34 % of control.
